Source: paper PMC10792626 (Saudi Pharmaceutical Journal : SPJ, 2023)
Values after ≈ are worked out from the molar mass of the structure shown.

The molecules below were run against α-amylase (assay: In vitro α-amylase inhibition assay). Details: phosphate buffer pH 6.8, 37 °C.
Type: biochemical

| IC50 α-amylase [µg/mL] | Molecule |
| --- | --- |
| 180.6 ± 2.04 (≈ 304 µM) | O=C(/C=C/c1ccc(O)cc1)OC[C@H]1O[C@@H](Oc2c(-c3ccc(O)cc3)oc3cc(O)cc(O)c3c2=O)[C@H](O)[C@@H](O)[C@@H]1O [Compound 2, Tiliroside] |
| 135.2 ± 1.84 (≈ 472 µM) | O=c1c(O)c(-c2ccc(O)cc2)oc2cc(O)cc(O)c12 [Compound 3, Kaempferol] |
| 177.2 ± 2.01 (≈ 290 µM) | C[C@@H]1O[C@@H](OC[C@H]2O[C@@H](Oc3c(-c4ccc(O)c(O)c4)oc4cc(O)cc(O)c4c3=O)[C@H](O)[C@@H](O)[C@@H]2O)[C@H](O)[C@H](O)[C@H]1O [Compound 5, Rutin] |
| 118.4 ± 1.38 | Quercetin [Compound 4] |
